Experimental data from article PMC13253105, “Chemical inhibition of a CBASS anti-bacteriophage defense” (iScience, 2026).
Like-named read-outs stand apart in the source and are kept apart here. Where a SMILES comes first, the peptide text is derived from it. The star is where a group is joined. Cbz = O=C(OCc1ccccc1)*; Bn = c1ccc(C*)cc1

What was measured:
[1] = tested on: PsCap5 in E. coli BL21 (DE3) cells; format: cell-based
Protocol: The same E. coli BL21 (DE3) cells carrying the PsCap5 expression plasmid from above were grown in LB medium with 50 μg/mL kanamycin at 37°C with 220 rpm shaking to an OD600 of ∼0.6 (1 cm pathlength). […] The bacterial cultures were then serially diluted from 10-1 to 10−6, and 5 μL of each was spotted onto LB agar petri dishes supplemented with kanamycin. After overnight incubation, the plates were photographed and colonies formed by viable cells were counted.

PsCap5 = PsCap5 (Pseudomonas syringae pv. actinidiae, UniProt A0A2P0QGK5); assay: biochemical; conditions: for inhibition of PsCap5 in rescreening of the compound library: normalized DNA band intensity, threshold 0.25
LlCap5 = LlCap5 (Lactococcus cremoris, UniProt A0A1E7G0A2); assay: biochemical; set-up: species or system Lactococcus lactis
DpnI = DpnI (Streptococcus pneumoniae serotype 4, UniProt P0A459); format: biochemical; conditions: 1 μL 100 μM inhibitor 20 in 10 μL buffer
Cas9 = Cas9 (Streptococcus pyogenes serotype M1, UniProt Q99ZW2); format: biochemical; conditions: inhibitor 20 (100 µM)
Cas9, sequence (Q99ZW2 whole entry, looked up): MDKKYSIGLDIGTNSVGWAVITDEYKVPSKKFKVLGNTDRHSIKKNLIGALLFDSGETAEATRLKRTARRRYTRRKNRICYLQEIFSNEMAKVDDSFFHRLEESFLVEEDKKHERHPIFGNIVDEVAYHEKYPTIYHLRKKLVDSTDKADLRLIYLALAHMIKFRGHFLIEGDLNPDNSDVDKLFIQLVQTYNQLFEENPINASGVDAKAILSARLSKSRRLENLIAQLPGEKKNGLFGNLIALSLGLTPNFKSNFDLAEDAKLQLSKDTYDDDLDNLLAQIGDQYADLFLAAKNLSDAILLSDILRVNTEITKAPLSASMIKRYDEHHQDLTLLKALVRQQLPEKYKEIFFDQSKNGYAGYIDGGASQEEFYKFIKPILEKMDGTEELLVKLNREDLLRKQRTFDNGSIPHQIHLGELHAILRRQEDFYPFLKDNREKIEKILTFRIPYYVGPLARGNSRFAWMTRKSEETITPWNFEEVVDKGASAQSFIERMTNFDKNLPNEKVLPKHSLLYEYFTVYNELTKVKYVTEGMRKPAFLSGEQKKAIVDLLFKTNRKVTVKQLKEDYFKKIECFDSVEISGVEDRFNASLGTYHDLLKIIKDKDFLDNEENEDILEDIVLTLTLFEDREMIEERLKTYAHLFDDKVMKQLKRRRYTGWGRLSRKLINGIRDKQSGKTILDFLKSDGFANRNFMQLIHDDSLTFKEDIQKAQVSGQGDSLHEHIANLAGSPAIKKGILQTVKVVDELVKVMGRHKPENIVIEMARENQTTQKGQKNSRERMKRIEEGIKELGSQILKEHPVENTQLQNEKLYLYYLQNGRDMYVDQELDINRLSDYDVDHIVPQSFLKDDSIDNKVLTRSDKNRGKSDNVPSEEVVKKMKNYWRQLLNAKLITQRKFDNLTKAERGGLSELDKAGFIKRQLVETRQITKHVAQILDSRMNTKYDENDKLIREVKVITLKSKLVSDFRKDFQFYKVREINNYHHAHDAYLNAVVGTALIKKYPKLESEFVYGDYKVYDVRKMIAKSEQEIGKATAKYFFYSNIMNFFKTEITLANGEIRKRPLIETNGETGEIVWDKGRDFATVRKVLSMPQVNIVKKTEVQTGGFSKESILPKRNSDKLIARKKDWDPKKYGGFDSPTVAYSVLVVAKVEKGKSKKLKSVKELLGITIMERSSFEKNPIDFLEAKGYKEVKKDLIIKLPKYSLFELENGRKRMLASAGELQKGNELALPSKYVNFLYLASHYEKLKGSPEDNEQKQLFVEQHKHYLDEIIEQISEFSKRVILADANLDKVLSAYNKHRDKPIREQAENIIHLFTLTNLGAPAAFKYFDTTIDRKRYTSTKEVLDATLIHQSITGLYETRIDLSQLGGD

PsCap5, sequence (A0A2P0QGK5 10-397 limits assumed): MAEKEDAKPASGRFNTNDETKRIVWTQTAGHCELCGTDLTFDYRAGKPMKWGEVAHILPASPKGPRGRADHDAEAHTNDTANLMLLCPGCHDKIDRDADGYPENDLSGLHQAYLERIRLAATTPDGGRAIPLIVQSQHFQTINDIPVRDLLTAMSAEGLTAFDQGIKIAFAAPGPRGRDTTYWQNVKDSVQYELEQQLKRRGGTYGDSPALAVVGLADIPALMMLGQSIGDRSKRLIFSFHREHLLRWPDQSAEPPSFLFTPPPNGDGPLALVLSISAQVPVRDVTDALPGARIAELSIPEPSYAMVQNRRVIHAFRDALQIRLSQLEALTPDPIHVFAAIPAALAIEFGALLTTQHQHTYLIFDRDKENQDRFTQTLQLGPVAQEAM
LlCap5, sequence (A0A1E7G0A2 1-385): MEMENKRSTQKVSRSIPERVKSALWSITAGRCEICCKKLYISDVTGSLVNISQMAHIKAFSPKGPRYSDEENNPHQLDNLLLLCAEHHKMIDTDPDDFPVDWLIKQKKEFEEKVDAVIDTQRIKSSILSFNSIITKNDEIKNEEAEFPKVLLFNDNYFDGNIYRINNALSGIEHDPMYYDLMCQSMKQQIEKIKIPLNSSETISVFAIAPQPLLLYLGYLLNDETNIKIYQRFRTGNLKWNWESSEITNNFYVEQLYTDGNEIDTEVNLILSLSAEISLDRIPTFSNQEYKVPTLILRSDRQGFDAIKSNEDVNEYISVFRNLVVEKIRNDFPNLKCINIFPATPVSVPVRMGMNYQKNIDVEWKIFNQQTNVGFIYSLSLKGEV
DpnI, sequence (P0A459 whole entry, looked up): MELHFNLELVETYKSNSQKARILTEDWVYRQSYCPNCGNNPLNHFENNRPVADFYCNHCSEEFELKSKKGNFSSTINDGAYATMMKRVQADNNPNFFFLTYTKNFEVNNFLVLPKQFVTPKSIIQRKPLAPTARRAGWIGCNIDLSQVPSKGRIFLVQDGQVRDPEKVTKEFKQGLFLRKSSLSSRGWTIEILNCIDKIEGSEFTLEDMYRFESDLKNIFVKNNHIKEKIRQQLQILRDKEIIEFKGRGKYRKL

| Molecule | inhibition of PsCap5 in rescreening of the compound library (PsCap5) | IC50 (LlCap5) | IC50 (PsCap5) | other results |
| --- | --- | --- | --- | --- |
| 3′,2′-cGAMP [reference compound] |  |  |  | bacterial growth of E. coli carrying PsCap5 plasmid after extrinsic addition of activating ligand [1]: severe restriction of bacterial growth |
| NS(=O)(=O)c1ccc(CCNC(=O)CCCn2c(SCc3cc(=O)n4cc(Br)ccc4n3)nc3ccsc3c2=O)cc1 [Compound 2] | did not noticeably inhibit PsCap5 | 230 ± 10 µM |  |  |
| NS(=O)(=O)c1ccc(CCNC(=O)CSc2nc3ccccc3c(=O)n2Cn2c(SCC(=O)NCCc3ccc(S(N)(=O)=O)cc3)nc3ccccc3c2=O)cc1 [Compound 4] |  |  |  | IC50 (PsCap5; read-out: IC50 against PsCap5, 50 nM PsCap5, 10 nM 3′,2′-cGAMP, 37°C 15 min, ±S.E.M. of biological triplicates): 11 ± 1 µM; inhibition of LlCap5 in biochemical screening (LlCap5; normalized DNA band intensity, threshold for activity 0.4): inactive against LlCap5; rescue of E. coli from cGAMP-Cap5-induced toxicity [1]: failed to rescue |
| O=C(CCN1C(=O)c2ccccc2C1=O)NCCCCCCNC(=O)CCN1C(=O)c2ccccc2C1=O [Compound 19] | did not noticeably inhibit PsCap5 | > 100 µM |  |  |
| Cc1ccc(CNC(=O)c2ccc(Cn3c(=O)c4ccccc4n(CC(=O)NCc4ccco4)c3=O)cc2)cc1 [Compound 20] |  | 120 ± 60 µM | 24 ± 8 µM | inhibition of DpnI (DpnI): failed to inhibit; inhibition of Cas9 (Cas9): failed to inhibit Cas9; recovery of viable cells (bacterial population) ([1]; 0.33 mM compound 20, 0.2 mM 3′,2′-cGAMP, 37°C 3 h): ~100 fold |
| COC(=O)C(NC(=O)C(Cc1ccc(OCc2ccccc2)cc1)NC(=O)C(Cc1ccccc1)NC(=O)CNC(=O)OCc1ccccc1)C(C)O (stereo not shown) [Compound 22] (Cbz-GFY(Bn)T-OMe; configuration not given here) | did not noticeably inhibit PsCap5 | 58 ± 16 µM |  |  |
| Cn1c(=O)[nH]c(=O)c2c1nc(SCCSc1nc3c(c(=O)[nH]c(=O)n3C)n1CCc1ccccc1)n2CCc1ccccc1 [Compound 36] |  | 140 ± 20 µM | 100 ± 20 µM |  |
| NC(=O)[C@H](Cc1ccc(O)cc1)NC(=O)[C@H](CCCCNC(=O)OCc1ccccc1)NC(=O)OCc1ccccc1 [Compound 37] |  | 260 ± 70 µM | 150 ± 40 µM |  |
